These results are taken from PubChem BioAssay (NCI).

“And” between values parts separate entries of the source, which are not always exact repeats. Equal values may be shown once.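 Five compound concentrations were applied to cells in 96-well plates for 48 hours; endpoints were derived by simple linear interpolation of the resulting dose-response curve. Here, GI50 denotes the concentration required for 50% inhibition of growth. The concentration for full growth arrest is given as TGI.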

Among the test systems are 786-0 renal; HCT-15 colon; U251 CNS; ACHN renal; NCI-H522 lung; HOP-62 NSCLC; UACC-257 melanoma; COLO 205 colon; SNB-75 CNS; CCRF-CEM leukemia.
Common to all, as to test: NCI-60 cell line screen, 48 h

As for `O=C1C(c2c[nH]c3ccccc23)=C(c2c[nH]c3ccccc23)C(=O)N1O`, the GI50 with 786-0 renal, in the experiment with HCT-15 colon, in the experiment with U251 CNS, in the experiment with ACHN renal, in the experiment on NCI-H522 lung and in the experiment with HOP-62 NSCLC was more than 25 µM each time. For the same compound, the GI50 in the experiment with UACC-257 melanoma, with COLO 205 colon, in the experiment on SNB-75 CNS and with CCRF-CEM leukemia was more than 25 µM in each case. For the same compound, the TGI in the experiment with 786-0 renal, in the experiment on HCT-15 colon, in the experiment on U251 CNS, in the experiment on ACHN renal, in the experiment on NCI-H522 lung and in the experiment on HOP-62 NSCLC was more than 25 µM throughout. The TGI in the experiment with UACC-257 melanoma, with COLO 205 colon, with SNB-75 CNS and in the experiment with CCRF-CEM leukemia was more than 25 µM throughout.

On to `CC(C)=CCC/C(C)=C/CC/C(C)=C/Cc1c(O)c2ccccc2oc1=O`, for which the TGI in the experiment with 786-0 renal, in the experiment with HCT-15 colon, in the experiment on U251 CNS, with ACHN renal, in the experiment with NCI-H522 lung and in the experiment with HOP-62 NSCLC was more than 100 µM each time. The TGI with UACC-257 melanoma, in the experiment with COLO 205 colon, with SNB-75 CNS and in the experiment with CCRF-CEM leukemia was more than 100 µM in each case.

Take `CC1OC(OCC2OC(Oc3c(-c4ccc(O)cc4)oc4cc(O)cc(O)c4c3=O)C(OC3OC(C)C(O)C(O)C3O)C(O)C2O)C(O)C(O)C1O` (stereo not drawn): the TGI in the experiment on 786-0 renal is more than 100 µM; in the experiment on HCT-15 colon, more than 56.8 µM; with U251 CNS, more than 100 µM; in the experiment on ACHN renal, more than 100 µM; in the experiment on NCI-H522 lung, more than 100 µM; in the experiment on HOP-62 NSCLC it was more than 100 µM. Besides, the TGI with UACC-257 melanoma is more than 100 µM; in the experiment on COLO 205 colon, more than 72.7 µM; in the experiment with SNB-75 CNS, more than 100 µM; with CCRF-CEM leukemia it was more than 83.5 µM.

`CCO/C=C/C(C)C1(C(=O)OCC)CCCCC1=O` (stereo not drawn): the TGI with 786-0 renal, in the experiment with HCT-15 colon, in the experiment with U251 CNS, in the experiment with ACHN renal, in the experiment with NCI-H522 lung and in the experiment with HOP-62 NSCLC was more than 100 µM throughout. For the same compound, the TGI in the experiment with UACC-257 melanoma, with COLO 205 colon, in the experiment on SNB-75 CNS and in the experiment with CCRF-CEM leukemia was more than 100 µM each time.

Turning to `Nc1nc2c(c(=O)[nH]1)NC(CO)CN2` (stereo not drawn), the TGI in the experiment with 786-0 renal, in the experiment with HCT-15 colon, in the experiment with U251 CNS, in the experiment on ACHN renal, with NCI-H522 lung and in the experiment with HOP-62 NSCLC was more than 100 µM in each case. Further, the TGI with UACC-257 melanoma was 64.3 µM; in the experiment with COLO 205 colon, more than 100 µM; in the experiment on SNB-75 CNS, more than 100 µM; in the experiment on CCRF-CEM leukemia it was more than 100 µM.

Consider `CC(=O)NNc1nc(C)c(C(=O)NNC(=O)C(=O)Nc2c(C)cccc2C)s1`, for which the TGI in the experiment on 786-0 renal is more than 100 µM; with HCT-15 colon, more than 100 µM; in the experiment on U251 CNS it was more than 100 µM; in the experiment on ACHN renal, more than 100 µM; in the experiment with NCI-H522 lung, 32.8 µM; with HOP-62 NSCLC, more than 100 µM. Besides, the TGI in the experiment with UACC-257 melanoma was more than 100 µM; in the experiment with COLO 205 colon, more than 100 µM; with SNB-75 CNS, more than 100 µM; in the experiment on CCRF-CEM leukemia, 81.7 µM.

For `CCCC(=O)Nc1cc(C(=O)N2C[C@@H]3C[C@]34C2=CC(=O)c2[nH]cc(C)c24)n(COC)c1`, the GI50 was 1.81 µM in the experiment on 786-0 renal; 13.9 µM in the experiment with HCT-15 colon; 2.39 µM with U251 CNS; 3.62 µM with ACHN renal; 2.5 µM in the experiment on HOP-62 NSCLC; 3.03 µM with UACC-257 melanoma. Further, the GI50 with COLO 205 colon is 1.83 µM; in the experiment with SNB-75 CNS, 2.99 µM; in the experiment with CCRF-CEM leukemia it was 0.495 µM. For the same compound, the TGI in the experiment with 786-0 renal was 15.2 µM and 3.72 µM; with HCT-15 colon, 50 µM and 33.3 µM; in the experiment with U251 CNS, 20.6 µM and 6.21 µM; in the experiment on ACHN renal, 24.6 µM and 26.1 µM; with NCI-H522 lung it was 3.57 µM and 2.43 µM; in the experiment on HOP-62 NSCLC it was 50 µM and 8.13 µM. Further, the TGI with UACC-257 melanoma is 32.4 µM and 6.62 µM; with COLO 205 colon, 12.9 µM and 4.26 µM; with SNB-75 CNS, 17.7 µM and 12.3 µM.

For `COc1ccc(C2SCC(=O)N2NC(=O)C(O)c2ccccc2)cc1OC` (stereo not drawn), the GI50 with 786-0 renal, with HCT-15 colon, with U251 CNS, with ACHN renal, with NCI-H522 lung and in the experiment on HOP-62 NSCLC was more than 100 µM throughout. Further, the GI50 in the experiment with UACC-257 melanoma, in the experiment with COLO 205 colon, with SNB-75 CNS and with CCRF-CEM leukemia was more than 100 µM each time. The TGI with 786-0 renal, with HCT-15 colon, in the experiment with U251 CNS, in the experiment with ACHN renal, in the experiment with NCI-H522 lung and with HOP-62 NSCLC was more than 100 µM each time. Moreover, the TGI in the experiment on UACC-257 melanoma, in the experiment with COLO 205 colon, in the experiment on SNB-75 CNS and in the experiment on CCRF-CEM leukemia was more than 100 µM in each case.

In the case of `Oc1ccc(C(c2ccc(O)cc2)c2ccc(Cl)cn2)cc1`, the GI50 in the experiment with 786-0 renal was 36.2 µM; in the experiment with HCT-15 colon, 0.337 µM; in the experiment on U251 CNS, 42.3 µM; in the experiment with ACHN renal, 0.427 µM; in the experiment with NCI-H522 lung it was 2.63 µM; in the experiment on HOP-62 NSCLC it was 33.7 µM. The GI50 in the experiment with UACC-257 melanoma is 23.1 µM; in the experiment on COLO 205 colon, 0.0416 µM; in the experiment with SNB-75 CNS it was 0.17 µM; in the experiment on CCRF-CEM leukemia, 14.9 µM. Further, the TGI is more than 100 µM in the experiment with 786-0 renal; 56.1 µM with HCT-15 colon; more than 100 µM with U251 CNS; 22.2 µM in the experiment with ACHN renal; 69.8 µM in the experiment with NCI-H522 lung; more than 100 µM in the experiment on HOP-62 NSCLC. Also, the TGI with UACC-257 melanoma was more than 100 µM; in the experiment on COLO 205 colon, 4.97 µM; with SNB-75 CNS, 0.451 µM; with CCRF-CEM leukemia it was more than 100 µM.

As for `O=C(/C=C/c1ccccc1)CC1OC(=O)c2ccccc21` (stereo not drawn), the TGI in the experiment on 786-0 renal, with HCT-15 colon, in the experiment with U251 CNS, in the experiment with ACHN renal, in the experiment with NCI-H522 lung and in the experiment on HOP-62 NSCLC was more than 100 µM throughout. The TGI with UACC-257 melanoma, with COLO 205 colon, in the experiment with SNB-75 CNS and in the experiment with CCRF-CEM leukemia was more than 100 µM in each case.
